Drawing on ChEMBL document CHEMBL1123048 (J Med Chem, 1985), this text covers Ki and solubility for 16 compounds.

Values after ≈ are worked out from the molar mass of the structure shown.

Series [1] has as its target T1, Adenosine receptor A1 (Rattus norvegicus, UniProt P25099).
T1 sequence (P25099 whole entry): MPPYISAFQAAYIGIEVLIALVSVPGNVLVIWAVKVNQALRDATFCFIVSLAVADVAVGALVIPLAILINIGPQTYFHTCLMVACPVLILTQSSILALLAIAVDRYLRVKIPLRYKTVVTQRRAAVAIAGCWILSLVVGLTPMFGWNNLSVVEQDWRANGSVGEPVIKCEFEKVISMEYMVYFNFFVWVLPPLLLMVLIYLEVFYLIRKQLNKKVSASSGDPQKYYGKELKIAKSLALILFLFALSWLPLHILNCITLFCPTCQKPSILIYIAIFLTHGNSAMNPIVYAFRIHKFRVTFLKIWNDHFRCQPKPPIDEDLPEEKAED
Description: Binding affinity towards adenosine A1 receptor in rat cerebral cortical membranes by [3H]cyclohexyladenosine displacement.

Series [2] deals with T1, Adenosine receptor A1. Kind of series: Binding affinity towards adenosine A1 receptor in rat cerebral cortical membranes with 1 nM [3H]cyclohexyladenosine. In kind it is cell membranes.
Series [3] in a line: Solubility in 0.1 M sodium phosphate, and at pH 7.2. The following applies: 0.1 M sodium phosphate buffer. The series is classed as physicochemical.
The target in series [4] is Adenosine A2 receptor (Cavia porcellus).
Series [5] has the same target. As to the kind of experiment: Binding affinity against A2 adenosine receptor in [3H]adenine-labeled guinea pig cerebral cortical slices.

As usually defined, the Ki is a dissociation constant, usually derived from enzyme kinetics or from competition with a known ligand. `CCCn1c(=O)c2nc(-c3ccc(OCC(=O)NCCNC(C)=O)cc3)[nH]c2n(CCC)c1=O`: the inhibition constant (Ki) on Adenosine receptor A1 [1] is 24 nM.

`CCCn1c(=O)c2nc(-c3ccc(OCC(=O)N(C)C)cc3)[nH]c2n(CCC)c1=O` returned an inhibitory constant (Ki) at Adenosine receptor A1 [1] of 32 nM. As a reminder, the solubility is the concentration that dissolves in the medium under given conditions. On to `CCCn1c(=O)c2[nH]c(-c3ccc(OCC(N)=O)cc3)nc2n(CCC)c1=O`, for which, on Adenosine receptor A1 [2], affinity was put at a Ki of 6 nM. Further, the solubility in series [3] was 26 µM (≈ 10 µg/mL). In turn, `CCCn1c(=O)c2nc(-c3ccc(OCC(=O)ON4C(=O)CCC4=O)cc3)[nH]c2n(CCC)c1=O` showed a Ki in series [4] of 40 nM. In the case of `CCCn1c(=O)c2nc(-c3ccc(O)cc3)[nH]c2n(CCC)c1=O`, the solubility in series [3] was determined as 3.2 µM (≈ 1.05 µg/mL). The compound `CCCn1c(=O)c2nc(-c3ccc(OCC(=O)OCC)cc3)[nH]c2n(CCC)c1=O` gave an inhibition constant Ki in series [4] of 30 nM. Take `CCCn1c(=O)c2nc(-c3ccc(OCC(=O)NCCNC(=O)CCCCC4SCC5NC(=O)NC54)cc3)[nH]c2n(CCC)c1=O` (stereo not drawn): the figures for the Ki (in series [5]; on Adenosine receptor A1 [1]) were 180 nM and 54 nM, respectively. `Cn1c(=O)c2nc(-c3ccc(OCC(=O)O)cc3)[nH]c2n(C)c1=O`: the Ki in series [4] is 430 nM; at Adenosine receptor A1 [1] it was 500 nM. In the case of `CCCn1c(=O)c2nc(-c3ccc(OCC(=O)NN)cc3)[nH]c2n(CCC)c1=O`, at Adenosine receptor A1 [1], the affinity, expressed as Ki, was 59 nM. Still for that read-out and setting: then `CCCn1c(=O)c2nc(-c3ccc(OCC(=O)N(C(=O)NC4CCCCC4)C4CCCCC4)cc3)[nH]c2n(CCC)c1=O`, with 96 nM. In the case of `CC(=O)O.CCCn1c(=O)c2nc(-c3ccc(OCC(=O)NCCN(CC)Cc4ccc(O)cc4)cc3)[nH]c2n(CCC)c1=O`, the inhibitory constant (Ki) is 320 nM in series [4] and 2.2 nM on Adenosine receptor A1 [1]. `CCCn1c(=O)c2nc(-c3ccc(OCC(=O)NCCCCCCCCN)cc3)[nH]c2n(CCC)c1=O`: the figures for the inhibitory constant (Ki) (in series [4]; at Adenosine receptor A1 [1]) were 470 nM and 5 nM, respectively. For the compound `CCCn1c(=O)c2nc(-c3ccc(OCC(=O)Nc4ccc(C)cc4)cc3)[nH]c2n(CCC)c1=O`, the Ki in series [4] came out at 750 nM; at Adenosine receptor A1 [1], 36 nM.

Regarding `Cc1ccc(NC(=O)COc2ccc(-c3nc4c(=O)n(C)c(=O)n(C)c4[nH]3)cc2)cc1`, on Adenosine receptor A1 [1], affinity was put at a Ki of 26 nM. For the compound `CCCn1c(=O)c2nc(-c3ccc(OCC(=O)Nc4ccc(O)cc4)cc3)[nH]c2n(CCC)c1=O`, the inhibitory constant (Ki) in series [4] is 62 nM; on Adenosine receptor A1 [1] it was 4.1 nM. In series [3], `CCCn1c(=O)c2[nH]c(-c3ccc(OCC(=O)NCCN)cc3)nc2n(CCC)c1=O` [XANTHINE AMINE CONGENER] had a solubility of 90 µM (≈ 38.6 µg/mL).
